Measurements published in ChEMBL document CHEMBL1151469, “Cytotoxic activity of N-chlorotaurine on Acanthamoeba spp” (Antimicrob Agents Chemother, 2008).
Calls of active or inactive are those of the source. No cut-off for these calls is given here.

Columns and labels:
Acanthamoeba polyphaga [1] = test: Amoebicidal activity against Trophozoites of Acanthamoeba polyphaga 5SU in peptone yeast extract glucose medium at pH 7 after 24 hrs by hemocytometer using trypan blue stain; format: functional, organism-based
Acanthamoeba polyphaga [2] = test: Amoebicidal activity against Trophozoites of Acanthamoeba polyphaga 5SU assessed as increase in cell killing at 10 mM in phosphate buffered saline at pH 7 within 3 hrs by hemocytometer using trypan blue stain in presence of 34 mM ammonium chloride; format: functional, organism-based
Acanthamoeba hatchetti [3] = test: Amoebicidal activity against Trophozoites of Acanthamoeba hatchetti 11DS in peptone yeast extract glucose medium at pH 7 after 1 hr by hemocytometer using trypan blue stain; format: functional, organism-based
Acanthamoeba castellanii [4] = test: Amoebicidal activity against excysted trophozoites of Acanthamoeba castellanii 4CL at 55 mM in peptone yeast extract glucose medium after 4 days by hemocytometer using trypan blue stain; format: functional
Acanthamoeba hatchetti [5] = test: Amoebicidal activity against Trophozoites of Acanthamoeba hatchetti 11DS assessed as log reduction in cell count at 10 mM in phosphate buffered saline at pH 5 after 24 hrs by hemocytometer using trypan blue staining in presence of 160 mM mM beta-alanine; format: functional, organism-based
Acanthamoeba polyphaga [6] = test: Amoebicidal activity against Trophozoites of Acanthamoeba polyphaga 5SU assessed as complete loss of viability at 55 mM in phosphate buffered saline after 24 hrs by hemocytometer using trypan blue stain in presence of 190 mM ammonium chloride; format: functional, organism-based
Acanthamoeba hatchetti [7] = test: Amoebicidal activity against Trophozoites of Acanthamoeba hatchetti 11DS assessed as rounding of the cells at 55 mM in phosphate buffered saline at pH 7 after 15 mins by hemocytometer using trypan blue stain; format: functional, organism-based
Acanthamoeba hatchetti [8] = test: Amoebicidal activity against Trophozoites of Acanthamoeba hatchetti 11DS in phosphate buffered saline at pH 7 after 24 hrs by hemocytometer using trypan blue stain in presence of 34 mM ammonium chloride; format: functional, organism-based
Acanthamoeba polyphaga [9] = test: Amoebicidal activity against Trophozoites of Acanthamoeba polyphaga 5SU in peptone yeast extract glucose medium at pH 7 after 6 hrs by hemocytometer using trypan blue stain in presence of 68 mM ammonium chloride; format: functional, organism-based
Acanthamoeba polyphaga [10] = test: Amoebicidal activity against Trophozoites of Acanthamoeba polyphaga 5SU assessed as killing time at 55 mM in peptone yeast extract glucose medium at pH 7 by hemocytometer using trypan blue stain; format: functional
Acanthamoeba hatchetti [11] = test: Amoebicidal activity against Trophozoites of Acanthamoeba hatchetti 11DS in peptone yeast extract glucose medium at pH 7 after 1 hr by hemocytometer using trypan blue stain in presence of 68 mM ammonium chloride; format: functional, organism-based
Acanthamoeba hatchetti [12] = test: Amoebicidal activity against excysted trophozoites of Acanthamoeba hatchetti 11DS at 55 mM in peptone yeast extract glucose medium after 11 days by hemocytometer using trypan blue stain; format: functional
Acanthamoeba polyphaga [13] = test: Amoebicidal activity against Trophozoites of Acanthamoeba polyphaga 5SU assessed as reduction killing time at 55 mM in phosphate buffered saline at pH 7 by hemocytometer using trypan blue stain in presence of 190 mM ammonium chloride; format: functional, organism-based
Acanthamoeba polyphaga [14] = test: Amoebicidal activity against Trophozoites of Acanthamoeba polyphaga 5SU at 55 mM in phosphate buffered saline at pH 7 after 1 hr by hemocytometer using trypan blue stain in presence of 190 mM ammonium chloride; format: functional, organism-based
Acanthamoeba polyphaga [15] = test: Amoebicidal activity against Trophozoites of Acanthamoeba polyphaga 5SU assessed as increase in reduction in cell count at 20 mM in peptone yeast extract glucose medium at pH 7 after 6 hrs by hemocytometer using trypan blue stain; format: functional, organism-based
Acanthamoeba castellanii [16] = test: Amoebicidal activity against excysted trophozoites of Acanthamoeba castellanii 40AB at 55 mM in peptone yeast extract glucose medium after 24 hrs by hemocytometer using trypan blue stain; format: functional
Acanthamoeba hatchetti [17] = test: Amoebicidal activity against Trophozoites of Acanthamoeba hatchetti 11DS in peptone yeast extract glucose medium at pH 7 after 6 hrs by hemocytometer using trypan blue stain in presence of 68 mM ammonium chloride; format: functional, organism-based
Acanthamoeba hatchetti [18] = test: Amoebicidal activity against Trophozoites of Acanthamoeba hatchetti 11DS assessed as killing time at 20 mM in peptone yeast extract glucose medium at pH 7 by hemocytometer using trypan blue stain; format: functional
Acanthamoeba polyphaga [19] = test: Amoebicidal activity against Trophozoites of Acanthamoeba polyphaga 5SU in phosphate buffered saline at pH 7 after 24 hrs by hemocytometer using trypan blue stain in presence of 34 mM ammonium chloride; format: functional, organism-based
Acanthamoeba polyphaga [20] = test: Amoebicidal activity against Trophozoites of Acanthamoeba polyphaga 5SU assessed as increase in reduction in cell count at 20 mM in peptone yeast extract glucose medium at pH 7 after 6 hrs by hemocytometer using trypan blue stain in presence of 68 mM ammonium chloride; format: functional, organism-based
Acanthamoeba hatchetti [21] = test: Amoebicidal activity against Trophozoites of Acanthamoeba hatchetti 11DS assessed as log reduction in cell count at 10 mM in phosphate buffered saline at pH 7 after 6 hrs by hemocytometer using trypan blue stain; format: functional
Acanthamoeba polyphaga [22] = test: Amoebicidal activity against Trophozoites of Acanthamoeba polyphaga 5SU assessed as killing time at 55 mM in phosphate buffered saline at pH 7 by hemocytometer using trypan blue stain; format: functional
Acanthamoeba hatchetti [23] = test: Amoebicidal activity against Trophozoites of Acanthamoeba hatchetti 11DS assessed as log reduction in cell count at 10 mM in phosphate buffered saline at pH 5 within 1 hr by hemocytometer using trypan blue stain in presence of 290 mM ammonium chloride; format: functional
Acanthamoeba polyphaga [24] = test: Amoebicidal activity against Trophozoites of Acanthamoeba polyphaga 5SU assessed as log reduction in cell count at 10 mM in phosphate buffered saline at pH 5 after 6 hrs by hemocytometer using trypan blue stain; format: functional, organism-based
Acanthamoeba polyphaga [25] = test: Amoebicidal activity against Trophozoites of Acanthamoeba polyphaga 5SU in phosphate buffered saline at pH 7 after 1 hr by hemocytometer using trypan blue stain; format: functional, organism-based
Acanthamoeba polyphaga [26] = test: Amoebicidal activity against Trophozoites of Acanthamoeba polyphaga 5SU in phosphate buffered saline at pH 7 after 6 hrs by hemocytometer using trypan blue stain; format: functional, organism-based
Acanthamoeba castellanii [27] = test: Amoebicidal activity against Trophozoites of Acanthamoeba castellanii 40AB assessed as killing time at 10 mM in phosphate buffered saline at pH 7 by hemocytometer using trypan blue stain; format: functional
Acanthamoeba castellanii [28] = test: Amoebicidal activity against excysted trophozoites of Acanthamoeba castellanii 4CL at 55 mM in peptone yeast extract glucose medium after 24 hrs by hemocytometer using trypan blue stain; format: functional
Acanthamoeba polyphaga [29] = test: Amoebicidal activity against Trophozoites of Acanthamoeba polyphaga 5SU in peptone yeast extract glucose medium at pH 7 after 1 hr by hemocytometer using trypan blue stain; format: functional, organism-based
Acanthamoeba hatchetti [30] = test: Amoebicidal activity against Trophozoites of Acanthamoeba hatchetti 11DS assessed as complete loss of viability at 55 mM in phosphate buffered saline incubated in xenic agar medium after 14 days by hemocytometer using trypan blue stain in presence of 190 mM ammonium chloride; format: functional, organism-based
Acanthamoeba castellanii [31] = test: Amoebicidal activity against Trophozoites of Acanthamoeba castellanii 40AB assessed as killing time at 20 mM in peptone yeast extract glucose medium at pH 7 by hemocytometer using trypan blue stain; format: functional
Acanthamoeba polyphaga [32] = test: Amoebicidal activity against Trophozoites of Acanthamoeba polyphaga 5SU assessed as reduction in cell count at 20 mM in peptone yeast extract glucose medium at pH 7 after 6 hrs by hemocytometer using trypan blue stain in presence of 580 mM ammonium chloride; format: functional, organism-based
Acanthamoeba hatchetti [33] = test: Amoebicidal activity against Trophozoites of Acanthamoeba hatchetti 11DS assessed as killing time at 55 mM in peptone yeast extract glucose medium at pH 7 by hemocytometer using trypan blue stain; format: functional

O=S(=O)(O)CCNCl
EC50 (Acanthamoeba polyphaga [1]): 8.1 mM
Activity (Acanthamoeba polyphaga [2]): Active
EC50 (Acanthamoeba hatchetti [3]): 10.1 mM
Activity (Acanthamoeba castellanii [4]): 2000
Activity (Acanthamoeba hatchetti [5]): Active
Activity (Acanthamoeba polyphaga [6]): Active
Activity (Acanthamoeba hatchetti [7]): Active
EC50 (Acanthamoeba hatchetti [8]): 5.11 mM
EC90 (Acanthamoeba hatchetti [8]): 9.13 mM
EC50 (Acanthamoeba polyphaga [9]): 12.9 mM
Activity (Acanthamoeba polyphaga [10]): 3 h
EC50 (Acanthamoeba hatchetti [11]): 13.9 mM
Activity (Acanthamoeba hatchetti [12]): 410000
Activity (Acanthamoeba polyphaga [13]): inactive
Activity (Acanthamoeba polyphaga [14]): Active
Activity (Acanthamoeba polyphaga [15]): Active
Activity (Acanthamoeba castellanii [16]): 0
EC50 (Acanthamoeba hatchetti [17]): 10.4 mM
Activity (Acanthamoeba hatchetti [18]): 36 h
EC50 (Acanthamoeba polyphaga [19]): 4.96 mM
EC90 (Acanthamoeba polyphaga [19]): 9.03 mM
Activity (Acanthamoeba polyphaga [20]): inactive
Activity (Acanthamoeba hatchetti [21]): 2
Activity (Acanthamoeba polyphaga [22]): 1 h
Activity (Acanthamoeba hatchetti [23]): 2
Activity (Acanthamoeba polyphaga [24]): Active
EC50 (Acanthamoeba polyphaga [25]): 29.3 mM
EC50 (Acanthamoeba polyphaga [26]): 4 mM
EC90 (Acanthamoeba polyphaga [26]): 7.95 mM
Activity (Acanthamoeba castellanii [27]): 30 h
Activity (Acanthamoeba castellanii [28]): 0
EC50 (Acanthamoeba polyphaga [29]): 23.1 mM
Activity (Acanthamoeba hatchetti [30]): inactive
Activity (Acanthamoeba castellanii [31]): 36 h
Activity (Acanthamoeba polyphaga [32]): Active
Activity (Acanthamoeba hatchetti [33]): 3 h
